Here are results for 24 compounds from patent US8791102B2, “Acetanilide sphingosine-1-phosphate receptor antagonists” (Exelixis, Inc., priority 2008, dated 2014).

The target of the test is T1, human S1P1 receptors (Homo sapiens, UniProt P21453).
T1 construct: host or cells: HEK293
Nature of the test: S1P1R antagonist assay (fluorescent membrane potential dye, cAMP readout). It counts as cell-based. The following applies: HEK293 cells expressing human S1P1 receptors and CNG channel; 500 nM NECA; S1P1R agonist 10 nM; 90 minutes; read-out: EC50 or IC50 value.

pIC50: −log10 of the molar value. Bounds are passed on as bounds.

T1 sequence (P21453 whole entry): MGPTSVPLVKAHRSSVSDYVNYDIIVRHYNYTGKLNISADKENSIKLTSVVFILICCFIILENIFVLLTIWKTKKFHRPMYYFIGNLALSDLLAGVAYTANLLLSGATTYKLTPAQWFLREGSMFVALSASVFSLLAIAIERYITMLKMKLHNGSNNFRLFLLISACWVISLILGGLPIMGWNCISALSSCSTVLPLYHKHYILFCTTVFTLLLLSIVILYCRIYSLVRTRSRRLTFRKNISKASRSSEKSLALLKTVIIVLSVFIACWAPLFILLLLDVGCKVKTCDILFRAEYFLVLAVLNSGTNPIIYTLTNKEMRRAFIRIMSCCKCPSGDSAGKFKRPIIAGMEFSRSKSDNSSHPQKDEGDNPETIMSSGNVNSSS

`CCN(CC)C(=O)C1CCCN(CC(=O)N[C@@H](COCc2ccccc2)C(=O)Nc2ccc(Oc3ccc(F)cc3)cc2)C1` (stereo partly drawn) [Compound 231, 1-(2-((S)-3-(benzyloxy)-1-(4-(4-fluorophenoxy)phenylamino)-1-oxopropan-2-ylamino)-2-oxoethyl)-N,N-diethylpiperidine-3-carboxamide]: the pIC50 was 6.00 to 6.52. For `O=C(Nc1ccc(Oc2ccc(F)cc2)cc1)[C@@H]1C[C@@H](Cc2ccccc2)CN1C(=O)Cc1c(F)ccc(F)c1F` [Compound 84, (2S,4R)-4-benzyl-N-(4-(4-fluorophenoxy)phenyl)-1-(2-(2,3,6-trifluorophenyl)acetyl)pyrrolidine-2-carboxamide] the value was no less than 6.52. As to `O=C(NC(COCc1ccccc1)C(=O)Nc1ccc(Oc2ccccc2)cc1)c1ccc(Cl)cc1F` (stereo not drawn) [Compound 387, 4-chloro-2-fluoro-N-(2-oxo-1-{[(phenylmethyl)oxy]methyl}-2-{[4-(phenyloxy)phenyl]amino}ethyl)benzamide], the negative logarithm of the IC50 (pIC50) was less than 6.00. Regarding `O=C(Nc1ccc(Oc2ccc(F)cc2)cc1)[C@@H]1C[C@@H](c2ccccc2)CN1C(=O)Cn1nccn1` [Compound 77, (2S,4S)-1-(2-(2H-1,2,3-triazol-2-yl)acetyl)-N-(4-(4-fluorophenoxy)phenyl)-4-phenylpyrrolidine-2-carboxamide], the pIC50 is 6.00 to 6.52. For `O=C(Nc1ccc(Oc2ccc(F)cc2)cc1)[C@@H]1C[C@@H](Oc2ccccc2)CN1C(=O)Cn1cncn1` [Compound 259, (2S,4R)-1-(2-(1H-1,2,4-triazol-1-yl)acetyl)-N-(4-(4-fluorophenoxy)phenyl)-4-phenoxypyrrolidine-2-carboxamide], the pIC50 is 6.00 to 6.52. The same measure for `COc1ccc(Br)c(C(=O)NC(COCc2ccccc2)C(=O)Nc2ccc(Oc3ccccc3)cc2)c1` (stereo not drawn) [Compound 272, 2-bromo-5-(methyloxy)-N-(2-oxo-1-{[(phenylmethyl)oxy]methyl}-2-{[4-(phenyloxy)phenyl]amino}ethyl)benzamide]: less than 6.00; for `O=C(NC(COCc1ccccc1)C(=O)Nc1ccc(Oc2ccccc2)cc1)c1ccc(F)cc1C(F)(F)F` (stereo not drawn) [Compound 330, 4-fluoro-N-(2-oxo-1-{[(phenylmethyl)oxy]methyl}-2-{[4-(phenyloxy)phenyl]amino}ethyl)-2-(trifluoromethyl)benzamide]: less than 6.00. For `O=C(CNCCc1c[nH]cn1)N[C@@H](COCc1ccccc1)C(=O)Nc1ccc(Oc2ccc(F)cc2)cc1` [Compound 216, (S)-2-(2-(2-(1H-imidazol-4-yl)ethylamino)acetamido)-3-(benzyloxy)-N-(4-(4-fluorophenoxy)phenyl)propanamide], the pIC50 was 6.00 to 6.52. On to `O=C(CCC1CCCC1)NC(COCc1ccccc1)C(=O)Nc1ccc(Oc2ccccc2)cc1` (stereo not drawn) [Compound 278, N-(2-oxo-1-{[(phenylmethyl)oxy]methyl}-2-{[4-(phenyloxy)phenyl]amino}ethyl)-3-cyclopentylpropanamide], for which the pIC50 is less than 6.00.

Consider `O=C(Cc1cnc[nH]1)NC(COCc1ccccc1)C(=O)Nc1ccc(Oc2ccccc2)cc1` (stereo not drawn) [Compound 142, 2-(2-(1H-imidazol-5-yl)acetamido)-3-benzyloxy-N-(4-phenoxyphenyl)propanamide], for which the pIC50 is no less than 6.52. For `COCCOCC(=O)N1C[C@H](Cc2ccccc2)C[C@H]1C(=O)Nc1ccc(Oc2ccc(F)cc2)cc1` [Compound 88, (2S,4R)-4-benzyl-N-(4-(4-fluorophenoxy)phenyl)-1-(2-(2-methoxyethoxy)acetyl)pyrrolidine-2-carboxamide], the pIC50 is no less than 6.52. For `O=C(CSc1ccccc1)NC(COCc1ccccc1)C(=O)Nc1ccc(Oc2ccccc2)cc1` (stereo not drawn) [Compound 313, N-(2-oxo-1-{[(phenylmethyl)oxy]methyl}-2-{[4-(phenyloxy)phenyl]amino}ethyl)-2-(phenylthio)acetamide] the value was 6.00 to 6.52. Turning to `Cc1nccn1CC(=O)N[C@@H](COCc1ccccc1)C(=O)Nc1ccc(Oc2ccc(F)cc2)cc1` [Compound 160, (S)-3-(benzyloxy)-N-(4-(4-fluorophenoxy)phenyl)-2-(2-(2-methyl-1H-imidazol-1-yl)acetamido)propanamide], the pIC50 was no less than 6.52. For the compound `O=C(Cn1cncn1)N1C[C@H](Cc2ccccc2)C[C@H]1c1nc2cc(Oc3ccc(F)cc3)ccc2[nH]1` [Compound 12, 1-((2S,4R)-4-benzyl-2-(5-(4-fluorophenoxy)-1H-benzo[d]imidazol-2-yl)pyrrolidin-1-yl)-2-(1H-1,2,4-triazol-1-yl)ethanone], the pIC50 is 6.00 to 6.52. The same measure for `C=CCCC(=O)NC(COCc1ccccc1)C(=O)Nc1ccc(Oc2ccccc2)cc1` (stereo not drawn) [Compound 298, N-(2-oxo-1-{[(phenylmethyl)oxy]methyl}-2-{[4-(phenyloxy)phenyl]amino}ethyl)pent-4-enamide]: less than 6.00.

As to `Cc1nc(C)n(CC(=O)N[C@@H](COCc2ccccc2)C(=O)Nc2ccc(Oc3ccc(F)cc3)cc2)n1` [Compound 256, (S)-3-(benzyloxy)-2-(2-(3,5-dimethyl-1H-1,2,4-triazol-1-yl)acetamido)-N-(4-(4-fluorophenoxy)phenyl)propanamide], the pIC50 was no less than 6.52. On to `CC(=O)N1CCC[C@H]1C(=O)N1C[C@H](Cc2ccccc2)C[C@H]1C(=O)Nc1ccc(Oc2ccc(F)cc2)cc1` [Compound 93, (2S,4R)-1-((S)-1-acetylpyrrolidine-2-carbonyl)-4-benzyl-N-(4-(4-fluorophenoxy)phenyl)pyrrolidine-2-carboxamide], for which the pIC50 was no less than 6.52.

Consider `O=C(CCCc1cccs1)NC(COCc1ccccc1)C(=O)Nc1ccc(Oc2ccccc2)cc1` (stereo not drawn) [Compound 325, N-(2-oxo-1-{[(phenylmethyl)oxy]methyl}-2-{[4-(phenyloxy)phenyl]amino}ethyl)-4-(2-thienyl)butanamide], for which the pIC50 is 6.00 to 6.52. Consider `O=C(Nc1ccc(Oc2ccc(F)cc2)cc1)[C@@H]1C[C@@H](Cc2ccccc2)CN1C(=O)CN1C(=O)c2ccccc2C1=O` [Compound 97], for which the pIC50 is no less than 6.52. The same measure for `CC/C=C/CC(=O)NC(COCc1ccccc1)C(=O)Nc1ccc(Oc2ccccc2)cc1` (stereo not drawn) [Compound 327]: 6.00 to 6.52. As to `O=C(NC(COCc1ccccc1)C(=O)Nc1ccc(Oc2ccccc2)cc1)c1ccc2ccccc2c1` (stereo not drawn) [Compound 288, N-(2-oxo-1-{[(phenylmethyl)oxy]methyl}-2-{[4-(phenyloxy)phenyl]amino}ethyl)naphthalene-2-carboxamide], the pIC50 was less than 6.00. On to `COc1ccc(OC)c(C(=O)NC(COCc2ccccc2)C(=O)Nc2ccc(Oc3ccccc3)cc2)c1` (stereo not drawn) [Compound 332, 2,5-bis(methyloxy)-N-(2-oxo-1-{[(phenylmethyl)oxy]methyl}-2-{[4-(phenyloxy)phenyl]amino}ethyl)benzamide], for which the pIC50 was 6.00 to 6.52. In the case of `O=C(CCC(=O)N1C[C@H](Cc2ccccc2)C[C@H]1C(=O)Nc1ccc(Oc2ccc(F)cc2)cc1)c1ccccc1` [Compound 124, (2S,4R)-4-benzyl-N-(4-(4-fluorophenoxy)phenyl)-1-(4-oxo-4-phenylbutanoyl)pyrrolidine-2-carboxamide], the negative-log IC50 (pIC50) is no less than 6.52. The same measure for `O=C(Nc1ccc(Oc2ccc(F)cc2)cc1)[C@@H]1C[C@@H](Cc2ccccc2)CN1C(=O)Cn1nnc2ccccc21` [Compound 176, (2S,4R)-1-(2-(1H-benzo[d][1,2,3]triazol-1-yl)acetyl)-4-benzyl-N-(4-(4-fluorophenoxy)phenyl)pyrrolidine-2-carboxamide]: no less than 6.52.
